Bounds are passed on as bounds.

A word on the IC50: it is the concentration that gives 50% inhibition. A high value points to weaker potency in that assay.

For assay [1], the target named is T1, Caspase-8 (Homo sapiens, UniProt Q14790). The experiment in a line: Inhibitory concentration against caspase-8.
Assay [2] addresses T2, Caspase-7 (Homo sapiens, UniProt P55210).
T2 sequence (P55210 whole entry): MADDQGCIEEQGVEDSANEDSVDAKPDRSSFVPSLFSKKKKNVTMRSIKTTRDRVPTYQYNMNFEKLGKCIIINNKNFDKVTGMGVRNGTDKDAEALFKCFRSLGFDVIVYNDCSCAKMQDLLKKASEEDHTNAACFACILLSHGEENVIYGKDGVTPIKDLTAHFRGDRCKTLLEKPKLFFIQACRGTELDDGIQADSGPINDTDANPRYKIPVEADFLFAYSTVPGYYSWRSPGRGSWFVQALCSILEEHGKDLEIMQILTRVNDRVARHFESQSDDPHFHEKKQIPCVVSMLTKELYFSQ
The experiment in a line: Inhibitory concentration against caspase-7.

Assay [3] concerns the target T3, Caspase-6 (Homo sapiens, UniProt P55212).
T3 sequence (P55212 whole entry): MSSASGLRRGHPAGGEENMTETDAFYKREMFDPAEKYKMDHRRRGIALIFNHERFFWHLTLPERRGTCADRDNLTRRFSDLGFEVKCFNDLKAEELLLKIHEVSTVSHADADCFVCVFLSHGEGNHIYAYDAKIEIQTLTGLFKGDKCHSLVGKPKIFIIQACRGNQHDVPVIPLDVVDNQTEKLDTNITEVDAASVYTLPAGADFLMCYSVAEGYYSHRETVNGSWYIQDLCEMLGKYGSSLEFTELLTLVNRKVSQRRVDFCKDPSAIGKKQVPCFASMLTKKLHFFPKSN
Description: Inhibitory concentration required against caspase-6.

In assay [4] the target is T4, Caspase-3 (Homo sapiens, UniProt P42574).
T4 sequence (P42574 whole entry): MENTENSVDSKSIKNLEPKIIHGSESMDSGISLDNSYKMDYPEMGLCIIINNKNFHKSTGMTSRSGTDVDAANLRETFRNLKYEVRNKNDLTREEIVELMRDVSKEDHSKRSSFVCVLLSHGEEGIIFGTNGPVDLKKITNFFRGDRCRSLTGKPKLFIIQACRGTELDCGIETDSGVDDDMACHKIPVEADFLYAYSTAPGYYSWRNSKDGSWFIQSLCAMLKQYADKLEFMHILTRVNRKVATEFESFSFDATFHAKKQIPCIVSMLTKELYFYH
Description: Inhibitory concentration against caspase-3.

Assay [5] deals with Caspase-1 (Mus musculus) (UniProt P29452).
The target of assay [6] is T3, Caspase-6. The experiment in a line: Inhibitory concentration of compound required against Caspase-6 compared to acylated dipeptides.
The target of assay [7] is T2, Caspase-7. The experiment in a line: Inhibitory concentration of compound required against Caspase-7 compared to acylated dipeptides.
Assay [8] addresses Caspase-1 (Mus musculus) (UniProt P29452). The experiment in a line: Inhibitory concentration of compound required against Caspase-1 compared to acylated dipeptides.
Assay [9] has as its target T1, Caspase-8. Description: Inhibitory concentration of compound required against Caspase-8 compared to acylated dipeptides.
The target in assay [10] is T4, Caspase-3. The experiment in a line: Inhibitory concentration of compound required against Caspase-3 compared to acylated dipeptides.

T1 sequence (Q14790 217-374 limits assumed): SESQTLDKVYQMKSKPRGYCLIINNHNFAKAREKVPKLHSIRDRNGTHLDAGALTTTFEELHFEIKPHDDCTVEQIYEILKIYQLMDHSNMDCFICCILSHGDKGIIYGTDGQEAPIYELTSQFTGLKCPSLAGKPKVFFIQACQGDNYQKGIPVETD
T1 sequence (Q14790 385-479 limits assumed): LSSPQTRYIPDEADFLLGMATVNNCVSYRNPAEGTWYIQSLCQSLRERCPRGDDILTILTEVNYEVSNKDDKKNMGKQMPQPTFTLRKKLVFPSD
Chain of Caspase-1 (Mus musculus) (P29452 whole entry, looked up): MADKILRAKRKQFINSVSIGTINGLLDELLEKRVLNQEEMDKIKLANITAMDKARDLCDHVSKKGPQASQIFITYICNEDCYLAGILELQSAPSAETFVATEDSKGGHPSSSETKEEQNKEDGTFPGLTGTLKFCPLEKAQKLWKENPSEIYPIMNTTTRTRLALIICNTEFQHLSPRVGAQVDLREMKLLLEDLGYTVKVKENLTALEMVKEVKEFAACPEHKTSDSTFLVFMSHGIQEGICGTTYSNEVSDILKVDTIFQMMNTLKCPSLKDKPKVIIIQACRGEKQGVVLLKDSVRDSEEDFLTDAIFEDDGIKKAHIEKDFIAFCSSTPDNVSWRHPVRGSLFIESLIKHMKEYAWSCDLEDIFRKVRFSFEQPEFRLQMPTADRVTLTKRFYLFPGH

For the compound `COc1ccc(OCC(=O)N[C@@H](CC(C)C)C(=O)N[C@H]2CC(=O)OC2O)c2ccccc12` (some centres undefined), the IC50 in assay [1] was found to be 1.45 µM; in assay [2], 4.08 µM; in [3] it was 22.6 µM; in assay [4], 0.263 µM; in [5], 0.831 µM.

Regarding `CC(C)C[C@H](NC(=O)COc1ccc2ccccc2c1)C(=O)N[C@H]1CC(=O)OC1O` (some centres undefined), the IC50 was 18.6 µM in assay [6]; over 10 µM in assay [1]; 8.87 µM in assay [7]; 8.87 µM in assay [2]; 18.6 µM in assay [3]; 10 µM in assay [8]. Further, the IC50 in assay [4] was found to be 0.944 µM; in assay [5], 10 µM; in assay [9], 10 µM; in assay [10] it was 0.94 µM.

Regarding `CC(C)C[C@H](NC(=O)COc1c(Cl)cc(Cl)c2ccccc12)C(=O)N[C@H]1CC(=O)OC1O` (some centres undefined), the IC50 was found to be 3.04 µM in [1]; 3.61 µM in assay [2]; 21.4 µM in [3]; 0.357 µM in [4]; 0.141 µM in assay [5].

Turning to `CC(C)C[C@H](NC(=O)[C@H](CCC(=O)O)NC(=O)OCc1ccccc1)C(=O)N[C@H]1CC(=O)OC1O` (some centres undefined), the IC50 in [7] amounted to 0.01 µM; in assay [8] it was 0.0065 µM; in [9], 0.03 µM; in assay [10] it was 0.0023 µM.

With `CC(C)C[C@H](NC(=O)COc1ccc(OCc2ccccc2)cc1)C(=O)N[C@H]1CC(=O)OC1O` (some centres undefined), the IC50 in assay [1] was determined as 8.6 µM; in assay [2], 7.25 µM; in assay [3] it was 33.4 µM; in [4], 0.57 µM; in assay [5], 2.51 µM.

`CC(C)C[C@H](NC(=O)COc1ccc(-c2ccccc2)cc1)C(=O)N[C@H]1CC(=O)OC1O` (some centres undefined): the IC50 in [1] was found to be 7.53 µM; in assay [2] it was 12 µM; in assay [3], 20.5 µM; in assay [4] it was 0.763 µM; in assay [5] it was 1.9 µM.

As for `CC(C)C[C@H](NC(=O)CCOc1ccccc1)C(=O)N[C@H]1CC(=O)OC1O` (some centres undefined), the IC50 in [1] is over 10 µM; in [2] it was 6.04 µM; in [3], over 50 µM; in [4], 0.419 µM; in assay [5], 9.42 µM.

For the compound `CC(C)C[C@H](NC(=O)[C@H](Cc1ccccc1)NC(=O)OCc1ccccc1)C(=O)N[C@H]1CC(=O)OC1O` (some centres undefined), the IC50 turned out to be 2.53 µM in assay [6]; 0.68 µM in [7]; 0.043 µM in [8]; 8.7 µM in [9]; 0.137 µM in assay [10].

For `CC(C)C[C@H](NC(=O)COc1ccc(Oc2ccccc2)cc1)C(=O)N[C@H]1CC(=O)OC1O` (some centres undefined), the IC50 was 9.28 µM in assay [1]; 6.82 µM in assay [2]; 21.2 µM in [3]; 0.545 µM in assay [4]; 2.21 µM in [5].

For the compound `Cc1ccc2ccccc2c1OCC(=O)N[C@@H](CC(C)C)C(=O)N[C@H]1CC(=O)OC1O` (some centres undefined), the IC50 in assay [1] came to 4.14 µM; in assay [2], 4.16 µM; in assay [3] it was 32.4 µM; in [4], 0.375 µM; in assay [5], 0.843 µM.

As to `CC(C)C[C@H](NC(=O)COc1cccc2ncccc12)C(=O)N[C@H]1CC(=O)OC1O` (some centres undefined), the IC50 was 4.02 µM in [1]; 3.85 µM in assay [2]; over 50 µM in assay [3]; 0.412 µM in assay [4]; 5.25 µM in assay [5].

As to `CC(C)C[C@H](NC(=O)CSc1cccc2ccccc12)C(=O)N[C@H]1CC(=O)OC1O` (some centres undefined), the IC50 in [1] came out at 7.42 µM; in [2], 1.74 µM; in assay [3] it was 1.43 µM; in assay [4] it was 0.195 µM; in assay [5], 2.75 µM.

In the case of `CC(C)C[C@@H](NC(=O)OCc1ccccc1)C(=O)C[C@H]1CC(=O)OC1O` (some centres undefined), the IC50 in assay [1] worked out at 50 µM; in assay [2] it was 21.9 µM; in [3] it was 14 µM; in assay [4], 3.47 µM; in assay [5] it was 18.8 µM.

Consider `Cc1ccc(OCC(=O)N[C@@H](CC(C)C)C(=O)N[C@H]2CC(=O)OC2O)c(C23CC4CC(CC(C4)C2)C3)c1` (some centres undefined), for which the IC50 worked out at 3.87 µM in assay [1]; 2.79 µM in [2]; 5.86 µM in [3]; 0.474 µM in assay [4]; 1.43 µM in assay [5].

In the case of `CC(=O)N[C@@H](C(=O)O)C(=O)N[C@@H](CCC(=O)O)C(=O)N[C@H](C(=O)N[C@H]1CC(=O)OC1O)C(C)C` (some centres undefined), the IC50 was determined as 0.01 µM in [6]; 0.01 µM in assay [7]; 0.05 µM in assay [8]; 0.08 µM in [9]; 0.0035 µM in assay [10].

As for `CC(C)C[C@H](NC(=O)CSc1ccc2ccccc2c1)C(=O)N[C@H]1CC(=O)OC1O` (some centres undefined), the IC50 in [1] came to 11 µM; in [2] it was 2.52 µM; in [3], 3.16 µM; in [4], 0.269 µM; in [5], 0.792 µM.

Regarding `CC(C)C[C@H](NC(=O)COc1ccc(C23CC4CC(CC(C4)C2)C3)cc1)C(=O)N[C@H]1CC(=O)OC1O` (some centres undefined), the IC50 stood at 4.35 µM in [1]; 8.24 µM in assay [2]; 32.5 µM in assay [3]; 0.528 µM in assay [4]; 1.83 µM in [5].

For the compound `CC(C)C[C@H](NC(=O)Cc1ccc(-c2ccccc2)cc1)C(=O)N[C@H]1CC(=O)OC1O` (some centres undefined), the IC50 is over 10 µM in assay [1]; over 10 µM in [7]; over 10 µM in [3]; 5.06 µM in assay [4]; 7.43 µM in assay [5].

Turning to `CC(C)C[C@H](NC(=O)COc1cccc(-c2ccccc2)c1)C(=O)N[C@H]1CC(=O)OC1O` (some centres undefined), the concentration for half-maximal inhibition (IC50) in [1] was determined as 3.86 µM; in [2], 3.75 µM; in assay [3], 14.5 µM; in assay [4] it was 0.311 µM; in assay [5], 1.1 µM.

(Values after ChEMBL document CHEMBL1134914, “Acyl dipeptides as reversible caspase inhibitors. Part 1: initial lead optimization” (Bioorg Med Chem Lett, 2002).)
